According to patent publication US6759420B1, “Arylalkanoyl derivatives, processes for their preparation, their use and pharmaceutical compositions containing them” (Aventis Pharma Deutschland GmbH, priority 1999, dated 2004):
Where a name gives a salt, the structure may show the parent alone. Read-outs that look alike come from different tables or passages of the source.

B1: antistasin (protein, UniProt P15358 18-136, looked up)
Antistasin: QGPFGPGCEEAGCPEGSACNIITDRCTCSGVRCRMHCPHGFQRSRYGCEFCKCRLEPMKATCDISECPEGMMCSRLTNKCDCKIDINCRKTCPNGLKRDKLGCEYCECRPKRKLIPRLS

Experiments:
thrombin and factor Xa = conditions: via anti-thrombin III; cited from earlier work
[1] = TAP at levels giving less than about two fold aPTT prolongation; heparin at doses causing a five fold increase in aPTT; cited from earlier work
factor Xa [2] = biological target: T1, factor Xa (Homo sapiens, UniProt P00742); conditions: background statement; cited from earlier work
T1 sequence (P00742 235-488 limits assumed): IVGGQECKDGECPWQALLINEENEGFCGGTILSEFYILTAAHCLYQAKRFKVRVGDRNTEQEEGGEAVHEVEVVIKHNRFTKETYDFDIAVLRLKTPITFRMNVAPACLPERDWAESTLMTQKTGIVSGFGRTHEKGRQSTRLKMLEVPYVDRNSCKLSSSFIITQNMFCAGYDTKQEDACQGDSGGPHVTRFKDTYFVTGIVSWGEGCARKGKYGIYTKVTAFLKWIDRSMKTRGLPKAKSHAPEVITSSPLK
T1 sequence (P00742 41-179 limits assumed): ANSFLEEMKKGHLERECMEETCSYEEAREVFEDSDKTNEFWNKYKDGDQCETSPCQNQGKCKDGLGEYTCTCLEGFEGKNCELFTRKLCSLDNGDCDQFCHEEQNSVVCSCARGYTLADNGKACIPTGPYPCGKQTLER

[3] = recombinantly-produced inhibitor, cited from earlier work; for bleeding time compared to other anticoagulants: animal model systems; for clotting in thromboplastin-induced, ligated jugular vein model of deep vein thrombosis: animal model
factor Xa [4] = biological target: T1, factor Xa; test: Factor Xa assay (Test 1a), chromogenic; assay type: biochemical; parameters: purchased Enzyme Research Laboratories, Inc; South Bend, Ind; conditions: in vitro factor Xa assay Test 1a; human factor Xa 0.5 nM, substrate S-2765 140 μM, 25° C.; Ki from IC50 corrected for substrate competition
Procedure, shortened: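 Purified human factor Xa (0.5 nM) in TBS-PEG pH 7.8 was preincubated 10 min with compound, then S-2765 (140 μM) added; initial rate read at 405 nm, 25° C. IC50 from linear regression of relative rate vs log concentration; Ki by substrate-competition correction using Km.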

[5] = subcutaneous; cited from earlier work

Molecule | Ki (factor Xa [4]) [nM] | other results
heparin | – | thrombin inactivated faster than factor Xa (thrombin and factor Xa): approximately 100 times; "high-shear" arterial thrombosis and "reduced flow" caused by polyester (DACRON) graft [1]: did not prevent thrombosis
tick anticoagulant peptide (YNRLCIKPRDWIDECDSNEGGERAYFRNGKGGCDSFWICPEDHTGADYYSSYRDCFNACI; UniProt P17726 1-60, looked up) [TAP, reference compound] | – | Ki (factor Xa [2]): ~0.5 nM; bleeding time compared to other anticoagulants [3]: decrease bleeding time; clotting in thromboplastin-induced, ligated jugular vein model of deep vein thrombosis [3]: prevent clotting; "high-shear" arterial thrombosis and "reduced flow" caused by polyester (DACRON) graft [1]: effectively prevents
N=C(N)c1ccc(CC(C(=O)NC(C(=O)NCC2CCN(C(=N)N)CC2)C2CCCCC2)c2cccc(Br)c2)cc1 (single isomer, unassigned; less polar) [Example 165] | 2 | –
N=C(N)NCCCC(NC(=O)C(NC(=O)C(Cc1ccc(C(=N)N)cc1)c1ccc(Br)cc1)C1CCCCC1)C(N)=O (single isomer, unassigned; less polar) [Example 119] | 11 | –
N=C(N)NCCCC(NC(=O)C(NC(=O)C(Cc1ccc(C(=N)N)cc1)C1CCCCC1)C1CCCCC1)C(N)=O (single isomer, unassigned; less polar) [Example 4] | 2 | –
N=C(N)NCCCC(NC(=O)C(NC(=O)C(Cc1ccc(C(=N)N)cc1)c1cccc(F)c1)C1CCCCC1)C(N)=O (single isomer, unassigned; less polar) [Example 131] | 5 | –
N=C(N)c1ccc(CC(C(=O)N[C@H](C(=O)NCC2CCN(C(=N)N)CC2)C2CCCCC2)c2ccccc2OC(F)(F)F)cc1 (single isomer, unassigned; less polar) [Example 233] | 33 | –
N=C(N)NCCC[C@H](NC(=O)[C@H](CCCN)NC(=O)C(Cc1ccc(C(=N)N)cc1)c1cccnc1)C(N)=O (mixture of isomers) [Example 51, 2-(S)-{5-Amino-2-(S)-[3-(4-carbamimidoyl-phenyl)-2-(R,S)-pyridin-3-yl-propionylamino]-pentanoylamino}-5-guanidino-pentanoic acid amide trifluoroacetic acid salt] | 3860 | –
CC(Cc1ccc(C(=N)N)cc1)(C(=O)N[C@@H](CC1CCCCC1)C(=O)N[C@@H](CCCNC(=N)N)C(N)=O)c1ccccc1 (mixture of isomers) [Example 100, 2-(S)-{2-(S)-[3-(4-Carbamimidoyl-phenyl)-2-(R,S)-methyl-2-phenyl-propionylamino]-3-cyclohexyl-propionylamino}-5-guanidino-pentanoic acid amide trifluoroacetic acid salt] | 440 | –
Cc1cccc(C(Cc2ccc(N)cc2)C(=O)NC(C(=O)NCC2CCN(C(=N)N)CC2)C2CCCCC2)c1 (single isomer, unassigned; less polar) [Example 167] | 74 | –
Cc1ccc(C(Cc2ccc(C(=N)N)cc2)C(=O)NC(C(=O)NCc2ccc(C(=N)N)cc2)C2CCCCC2)cc1 (single isomer, unassigned; less polar) [Example 154] | 310 | –
N=C(N)c1ccc(CC(C(=O)N[C@H](C(=O)NCC2CCN(C(=N)N)CC2)C2CCCCC2)c2ccccc2)cc1 (single isomer, unassigned; less polar) [Example 222] | 43 | –
N=C(N)c1ccc(CC(C(=O)N[C@H](C(=O)NCC2CCN(C(=N)N)CC2)C2CCCCC2)c2ccccc2F)cc1 (stereo partly drawn) [Example 214, 3-(4-Carbamimidoyl-phenyl)-N-{(S)-[(1-carbamimidoyl-piperidin-4-ylmethyl)-carbamoyl]-cyclohexyl-methyl}-2-(2-fluoro-phenyl)-propionamide trifluoroacetic acid salt] | 47 | –
N=C(N)c1ccc(CC(C(=O)NC(C(=O)NCCN2C(=O)CNC2=O)C2CCCCC2)C2CCCCC2)cc1 (single isomer, unassigned; less polar) [Example 7] | 7650 | –
CC(C)OC(=O)[C@H](CCCNC(=N)N)NC(=O)[C@@H](NC(=O)C(Cc1ccc(C(=N)N)cc1)c1cccc(Br)c1)C1CCCCC1 (single isomer, unassigned; more polar) [Example 243] | 25 | –
N=C(N)NCCC[C@H](NC(=O)C(NC(=O)C(Cc1ccc(C(=N)N)cc1)C1CCCCC1)C1CCCCC1)C(=O)NCc1ccccc1 (stereo partly drawn) [Example 196, 2-(S)-{2-[3-(4-Carbamimidoyl-phenyl)-2-cyclohexyl-propionylamino]-2-cyclohexyl-acetylamino}-5-guanidino-pentanoic acid benzylamide trifluoroacetic acid salt] | 39 | –
B1 | – | Ki (factor Xa [2]): 0.05 nM; bleeding time compared to other anticoagulants [3]: decrease bleeding time; clotting in thromboplastin-induced, ligated jugular vein model of deep vein thrombosis [3]: prevent clotting; treatment in thromboplastin-induced model of disseminated intravascular coagulation [5]: effective treatment
